The record followed here is patent US20240173344A1, “USE OF GABAA RECEPTOR AS TARGET IN PREPARATION OR SCREENING OF DRUG FOR LOWERING BLOOD LIPID LEVEL, TREATING OBESITY, AND/OR IMPROVING METABOLISM” (SHANGHAI INSTITUTE OF ENDOCRINE AND METABOLIC DISEASES, priority 2022, published 2024).

Each structure is given as a SMILES string. Several values for one entry are separate records, joined by “and”; a condition that tells them apart may be missing. Identical values can stand only once.

This experiment has as its system neurons in the DMV. Briefly: Chemogenetic (DREADDs) inhibition of DMV neurons by CNO in obese mice: body weight, blood lipid, fecal TG, jejunal TG. The note with it: single mice and mean; for Blood lipid level: Inhibition group (hM4D(Gi) virus + CNO i.p. 7 d). The class given is in vivo, C57BL/6J mice. The text has this:
In the present disclosure, the mice were fed with a high-fat diet in which a mass percentage of fat was 60% for 12 weeks, and when a body weight reached 35 g or more, animal models of alimentary obesity were successfully constructed. At a formal stage of the experiment (starting on day 0 in FIG. 1A, FIG. 3A, FIG. 6A, and FIG. 7A), the mice were raised in single cages, during which a daily food intake of each mouse model was accurately recorded, the feces was collected before and after drug intervention, and a daily body weight curve was recorded.
The chemogenetic approach designer receptors exclusively activated by designer drugs (DREADDs) is a research method that controls neuronal excitability in a specific brain region in an animal model, where a downstream signaling pathway of a specific exogenous ligand clozapine N-oxide (CNO) is activated through an adeno-associated virus (AAV) modified by a G protein-coupled receptor (GPCR) to cause a change in neuronal excitability. […]
Four weeks after recovery from surgery, mice in the chemogenetic inhibition group and the control group each were intraperitoneally injected with CNO (Catalog No. BML-NS105, Enzo Life Sciences, USA) at a dose of 1.0 mg/kg BW every day to inhibit the neuronal activity of the DMV, and the daily food intake and body weight were measured and the feces was collected for the mice. The mice were sacrificed after being continuously injected with CNO for 7 d to inhibit the DMV, mouse tissue samples were collected, and physiological and metabolic indexes were detected and analyzed.
A method for determining TG in a sample was as follows: 20 mg to 30 mg of a sample was first weighed, a 5% NP40-containing lysis buffer was added, and a resulting mixture was homogenated and incubated in a metal bath at 95° C. for 5 min, which was repeated twice. […] 2 μl of the supernatant was added to each well, and after a chromogenic reaction was completed, a value of each well was determined by a microplate reader. […]

As for `C[N+]1([O-])CCN(C2=Nc3cc(Cl)ccc3Nc3ccccc32)CC1` [CNO, clozapine N-oxide], the Blood lipid level is 0.7414 mM and 0.9111 mM and 0.6521 mM and 0.4645 mM and 0.8754 mM and 0.6342 mM and 0.7146 mM. In addition, the Blood lipid level (mean) was determined as 0.7169 mM. Besides, the “Body weight curve change percentage” value (Inhibition group (hM4D(Gi) virus in DMV, CNO 1.0 mg/kg BW i.p. daily), Day 0 baseline) amounted to 0.00%.
